Measurements reported in PubChem BioAssay AID2060606 (Molecular Pharmacology Branch, DTP, NCI, 2025).

Test system: 922993-354-T-J3-PDC complex spheroids, viability, % test/control
Experiment: Anticancer human tumor 922993-354-T-J3-PDC patient-derived endometrial carcinoma cell line growth inhibition [CLK]
Details: for IC50: curve of first compound; for viability, T/C: stronger effect = lower value; active means viability on the fitted dose curve at most 10% of control; inactive means the rest
Description: A high-throughput screen of multi-cell type tumor spheroids was designed to identify active combinations of […] and targeted small molecules. Complex spheroids include a stromal component modeled by human endothelial cells (HUVEC) and fibroblasts modeled by human mesenchymal stem cells (MSCs). The concentration ranges selected for each drug and investigational agent were based upon clinically achievable concentrations if the clinical Cmax of the agent was known.
Compounds. The drugs and investigational agents: cirtuvivint (SM08502; NSC835563), CC-671 (NSC850746), vemurafenib (NSC761431), tapotoclax (NSC804041), sotorasib (NSC818433), adagrasib (NSC831453), MRTX-1133 (NSC836407), BAY2416964 (NSC825713), copanlisib (NSC816437), inavolisib (NSC800729), abemaciclib (NSC768073), osimertinib (NSC779217), entinostat (NSC756642), eltanexor (KPT-8602, NSC794443), venetoclax (NSC766270), ceralasertib (NSC777638), bortezomib (NSC756655), olaparib (NSC753686), talazoparib (NSC767125), alisertib (NSC759677), peposertib (NSC802822), gemcitabine (NSC613327), 5-fluorouracil (NSC19893), SN-38 (NSC673596), oxaliplatin (NSC266046), paclitaxel (NSC125973), and doxorubicin (NSC123127), were obtained from the National Cancer Institute (NCI) Developmental Therapeutics Program Chemical Repository. The FDA-approved anticancer drug set is available from the Developmental Therapeutics Program at https://dtp.cancer.gov/organization/dscb/obtaining/available plates.htm. […] The stock solutions were prepared in dimethyl sulfoxide (DMSO, Sigma-Aldrich, St. Louis, MO, cat. D2650), except for the platinum complexes which were prepared in saline (Quality Biological, Gaithersburg, MD, cat. 114-055-101), at 800-fold the tested concentration and stored at -70 degrees C prior to their use. All drugs and investigational agents were tested over a range starting from a high concentration at or near the clinical Cmax and decreasing in half-log increments. If the clinical Cmax for an agent had not been determined, the highest concentration tested was 10 microM.
Cell Culture. All cells were maintained in an incubator at 37 degrees C and 5% CO2 with 95% humidity. The PDC lines were cultured according to standard operating procedures established by the NCI PDMR. Briefly, all PDCs were thawed and cultured in Matrigel-coated flasks prepared with a working solution of 1X Ham's F-12 nutrient mix, without supplementation (Invitrogen, Waltham, MA, cat. 11765054), 100 U/mL penicillin-streptomycin (Invitrogen, cat. 15140122), and 2.5% Matrigel (Corning Inc., Corning, NY, cat. 354248) for the first three passages. The 947758-054-R-J2-PDC line was cultured in 6B/Colon 1A media, which includes advanced DMEM/F-12 (Thermo Fisher Scientific, cat. 12634028), 10 mM HEPES (Thermo Fisher Scientific, cat. 15630080), 1X GlutaMAX supplement (Thermo Fisher Scientific, cat. 35050061), 0.1 mg/mL primocin (InvivoGen, cat. ant-pm-2), 10% defined fetal bovine serum, heat inactivated (HyClone Laboratories Inc., cat. SH30070.03HI), 1.25 mM N-Acetyl-L-cysteine (Sigma-Aldrich, cat. A9165), 10 mM nicotinamide (Sigma-Aldrich, cat. N0636), 1X B-27 supplement (Thermo Fisher Scientific, cat. 17504044), 1X N-2 supplement (Thermo Fisher Scientific, cat. 17502048), and 10 microM Y-27632 dihydrochloride (Tocris Bioscience, cat. 1254). The 876862-298-R-J1-PDC was cultured in 6E media, which includes all 6B/Colon 1A media components plus 50% L-WRN conditioned media (ATCC, cat. CRL-3276), 50 ng/mL recombinant human EGF recombinant protein (hEGF; Thermo Fisher Scientific, cat. PHG0311), 10 ng/mL recombinant human fibroblast growth factor 10 (hGFG-10; PeproTech, cat. 100-26), 1 ng/mL recombinant human fibroblast growth factor 2 (hFGF-2; PeproTech, cat. 100-18B), and 1 µM prostaglandin E2 (PGE2; Tocris, cat. 2296). The 227483-062-R1-J1-PDC line was cultured in Panc media, containing all 6E components except hFGF-2, with the addition of 500 nM SB-431542 (Selleckchem, cat. S1067) and 10 nM gastrin (Tocris, cat. 3006). […]

[1] = second compound 0.0316 µM, first compound 0.0316 µM
[2] = second compound 0.0316 µM, first compound 0.1 µM
[3] = second compound 0.0316 µM, first compound 0.316 µM
[4] = second compound 0.0316 µM, first compound 1 µM
[5] = second compound 0.1 µM, first compound 0.0316 µM
[6] = second compound 0.1 µM, first compound 0.1 µM
[7] = second compound 0.1 µM, first compound 0.316 µM
[8] = second compound 0.1 µM, first compound 1 µM
[9] = second compound 0.316 µM, first compound 0.0316 µM
[10] = second compound 0.316 µM, first compound 0.1 µM
[11] = second compound 0.316 µM, first compound 0.316 µM
[12] = second compound 0.316 µM, first compound 1 µM
[13] = second compound 1 µM, first compound 0.0316 µM
[14] = second compound 1 µM, first compound 0.1 µM
[15] = second compound 1 µM, first compound 0.316 µM
[16] = second compound 1 µM, first compound 1 µM
[17] = second compound 3.16 µM, first compound 0.0316 µM
[18] = second compound 3.16 µM, first compound 0.1 µM
[19] = second compound 3.16 µM, first compound 0.316 µM
[20] = second compound 3.16 µM, first compound 1 µM
[21] = second compound 10 µM, first compound 0.0316 µM
[22] = second compound 10 µM, first compound 0.1 µM
[23] = second compound 10 µM, first compound 0.316 µM
[24] = second compound 10 µM, first compound 1 µM
[25] = second compound 0.0316 µM, first compound 3.16 µM
[26] = second compound 0.0316 µM, first compound 10 µM
[27] = second compound 0.1 µM, first compound 3.16 µM
[28] = second compound 0.1 µM, first compound 10 µM
[29] = second compound 0.316 µM, first compound 3.16 µM
[30] = second compound 0.316 µM, first compound 10 µM
[31] = second compound 1 µM, first compound 3.16 µM
[32] = second compound 1 µM, first compound 10 µM
[33] = second compound 3.16 µM, first compound 3.16 µM
[34] = second compound 3.16 µM, first compound 10 µM
[35] = second compound 10 µM, first compound 3.16 µM
[36] = second compound 10 µM, first compound 10 µM
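Further: spheroids exposed to the agents for 7 days before readout.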

CCN1CCN(Cc2ccc(Nc3ncc(F)c(-c4cc(F)c5nc(C)n(C(C)C)c5c4)n3)nc2)CC1 + CNC(=O)c1ccc(Nc2nc(OC3CCCC3)c3c(-c4ccc5nc(C)oc5c4)c[nH]c3n2)c(OC)c1
> 1000 nM: IC50 (second compound 0.0316 µM) | IC50 (second compound 0.1 µM)
297 nM: IC50 (second compound 0.316 µM)
inactive: viability, T/C (second compound 0.0316 µM, first compound 0.00316 µM) 106% | viability, T/C (second compound 0.0316 µM, first compound 0.01 µM) 93.2% | viability, T/C [1] 98.5% | viability, T/C [2] 88.5% | viability, T/C [3] 69% | viability, T/C [4] 59.9% | viability, T/C (second compound 0.1 µM, first compound 0.00316 µM) 103% | viability, T/C (second compound 0.1 µM, first compound 0.01 µM) 93.4% | viability, T/C [5] 92.4% | viability, T/C [6] 76.7% | viability, T/C [7] 66.9% | viability, T/C [8] 53.8% | viability, T/C (second compound 0.316 µM, first compound 0.00316 µM) 58% | viability, T/C (second compound 0.316 µM, first compound 0.01 µM) 59.2% | viability, T/C [9] 57.4% | viability, T/C [10] 56.4% | viability, T/C [11] 45.5% | viability, T/C [12] 45.7% | viability, T/C (second compound 1 µM, first compound 0.00316 µM) 35.6% | viability, T/C (second compound 1 µM, first compound 0.01 µM) 33.6% | viability, T/C [13] 33.6% | viability, T/C [14] 35.9% | viability, T/C [15] 30.5% | viability, T/C [16] 38.1% | viability, T/C (second compound 3.16 µM, first compound 0.00316 µM) 29.4% | viability, T/C (second compound 3.16 µM, first compound 0.01 µM) 27.9% | viability, T/C [17] 30.5% | viability, T/C [18] 31.5% | viability, T/C [19] 31.6% | viability, T/C [20] 35.5% | viability, T/C (second compound 10 µM, first compound 0.00316 µM) 28.6% | viability, T/C (second compound 10 µM, first compound 0.01 µM) 29.2% | viability, T/C [21] 31.9% | viability, T/C [22] 29% | viability, T/C [23] 38.4% | viability, T/C [24] 36.3%
< 3.16 nM: IC50 (second compound 1 µM) | IC50 (second compound 3.16 µM) | IC50 (second compound 10 µM)

O=C(c1cc(Cc2n[nH]c(=O)c3ccccc23)ccc1F)N1CCN(C(=O)C2CC2)CC1 + CNC(=O)c1ccc(Nc2nc(OC3CCCC3)c3c(-c4ccc5nc(C)oc5c4)c[nH]c3n2)c(OC)c1
< 31.6 nM: IC50 (second compound 1 µM) | IC50 (second compound 3.16 µM) | IC50 (second compound 10 µM)
inactive: viability, T/C [1] 99.4% | viability, T/C [2] 106% | viability, T/C [3] 101% | viability, T/C [4] 106% | viability, T/C [25] 110% | viability, T/C [26] 101% | viability, T/C [5] 104% | viability, T/C [6] 107% | viability, T/C [7] 98.3% | viability, T/C [8] 105% | viability, T/C [27] 111% | viability, T/C [28] 101% | viability, T/C [9] 73.5% | viability, T/C [10] 72.1% | viability, T/C [11] 67.1% | viability, T/C [12] 66.5% | viability, T/C [29] 66% | viability, T/C [30] 51.8% | viability, T/C [13] 36.1% | viability, T/C [14] 38.5% | viability, T/C [15] 32.3% | viability, T/C [16] 35.6% | viability, T/C [31] 44.1% | viability, T/C [32] 39% | viability, T/C [17] 32.2% | viability, T/C [18] 36.8% | viability, T/C [19] 25.4% | viability, T/C [20] 34% | viability, T/C [33] 28.4% | viability, T/C [34] 33.5% | viability, T/C [21] 34.1% | viability, T/C [22] 24.7% | viability, T/C [23] 31.5% | viability, T/C [24] 34.2% | viability, T/C [35] 34.8% | viability, T/C [36] 33.8%
> 10000 nM: IC50 (second compound 0.0316 µM) | IC50 (second compound 0.1 µM) | IC50 (second compound 0.316 µM)

CC(Nc1ccc2c(c1)OCCn1cc(N3C(=O)OCC3C(F)F)nc1-2)C(N)=O (stereo unspecified) + CNC(=O)c1ccc(Nc2nc(OC3CCCC3)c3c(-c4ccc5nc(C)oc5c4)c[nH]c3n2)c(OC)c1
1960 nM: IC50 (second compound 0.316 µM)
< 31.6 nM: IC50 (second compound 1 µM) | IC50 (second compound 3.16 µM) | IC50 (second compound 10 µM)
inactive: viability, T/C [1] 116% | viability, T/C [2] 106% | viability, T/C [3] 84.8% | viability, T/C [4] 70.6% | viability, T/C [25] 57% | viability, T/C [26] 31.7% | viability, T/C [5] 108% | viability, T/C [6] 102% | viability, T/C [7] 99.5% | viability, T/C [8] 74.5% | viability, T/C [27] 55.9% | viability, T/C [28] 37% | viability, T/C [9] 71.7% | viability, T/C [10] 69.3% | viability, T/C [11] 77.6% | viability, T/C [12] 63.8% | viability, T/C [29] 40% | viability, T/C [30] 31.8% | viability, T/C [13] 39.8% | viability, T/C [14] 36.5% | viability, T/C [15] 26.4% | viability, T/C [16] 23.1% | viability, T/C [31] 15.2% | viability, T/C [32] 10.8% | viability, T/C [17] 35.1% | viability, T/C [18] 27.4% | viability, T/C [19] 24% | viability, T/C [20] 16.3% | viability, T/C [33] 12.3% | viability, T/C [34] 10.8% | viability, T/C [21] 28.9% | viability, T/C [22] 27.2% | viability, T/C [23] 21.5% | viability, T/C [24] 17.6% | viability, T/C [35] 13.4%
3780 nM: IC50 (second compound 0.0316 µM)
active: viability, T/C [36] 9.54%
4180 nM: IC50 (second compound 0.1 µM)
